Key:
[1] = test system: spinal nerve ligation (SNL) mouse model; experiment: Intraperitoneal (i.p.) SNL-mouse model of neuropathic pain, von Frey mechanical allodynia; assay type: in vivo
Source text: To measure the neuropathic pain inhibiting affects of the MMP inhibitors of the present invention, the spinal nerve ligation (SNL) mouse model was run on a select number of compounds. This model which began with the work of Bennet and coworkers (Bennet, G. J. et al. Pain, 33, (1988), 87-107) and was optimized by Kim and Chung (Kim, S. H.; Chung, J. M. Pain, 50, (1992), 355-363) entails first, under magnification, the removal of one-third of the transverse process and then identifying and then dissecting free the L5 spinal nerve from the adjacent L4 spinal nerve in the mouse. The L5 spinal nerve is then tightly ligated using 6.0 silk suture. The nerve injury leads to hyperalgesia which manifests itself by enhanced responses to mechanical, heat and/or cooling stimuli. In this case, mechanical hyperalgesia is tested via Von Frey monofilaments in which filaments of varying thicknesses and bending force are individually applied to the plantar surface of the foot of the mouse. The threshold force necessary for paw withdrawal decreases dramatically after the nerve surgery. Potent pain inhibitors will reverse this affect resulting in greater force needing to be applied to cause the rodent paw to withdrawal.
Tactile Allodynia Test. Mechanical allodynia was measured using the calibrated von Frey filaments (Semmes-Weinstein monofilaments; Stoelting, Wood Dale, Ill., U.S.A.). The plantar surface of the left injured paw of each animal was tested as described by Chaplan et al. (Journal of Neuroscience Methods, 53, (1994), 55-63). The Fifty percent paw withdrawal threshold response was determined by sequentially increasing or decreasing the stimulus strength according to the “up-down method” of Dixon (Annual Review Pharmacology Toxicology, 20, (1980), 441-462). For mice, […] von Frey filaments were used, with approximately equal logarithmic incremental bending forces (von Frey number: 1.65, 2.36, 2.44, 2.83, 3.22, 3.61, 3.84, 4.08, and 4.17; equivalent to 0.005, 0.02, 0.03, 0.07, 0.17, 0.41, 0.69, 1.20, and 1.48 g force, respectively).
Prior to testing, each animal was placed in a suspended clear plastic chamber with a wire mesh bottom and acclimated for 15 minutes. Testing was initiated with the 0.07 g (handle marking of 2.83) applied perpendicularly to the plantar surface of the affected hind paw; each filament was applied with enough pressure to cause a buckle effect. The absence of a paw lifting/withdrawal response after 6 s prompted the use of the next higher weight filament. Paw withdrawal, indicating a positive response, prompted the use of a weaker filament. After the initial positive response (i.e., paw withdrawal), the testing continued for four additional measurements, and was used to calculate the response threshold. Four consecutive positive responses received a score of 0.001 g, and five consecutive negative responses (i.e., no paw withdrawal) received a score of 1.5 g.
Analyses for Tactile Allodynia Testing. The 50% paw withdrawal threshold was calculated (PWT; Luo and Calcutt, J. Pharmacology Experimental Therapeutics, 303(3), (2002), 1199-1205; Chaplan et al. Journal of Neuroscience Methods, 53, (1994), 55-63) using the formula: 10(Xf+κδ)/10,000 where Xf is the final von Frey filament used (log units), κ is a value that analyzes the response pattern (taken from the table published by Chaplan et al., 1994), and δ is the mean difference between stimuli (log units).
Except for the mode of administration, number of mice/group and the number of injections and amount of compound per injection, the rest of the study was done in the same manner (in regards to the surgeries and tactile allodynia testing and analysis) as Experiment 110. 3.2 mg of each of the MMP inhibitors #5 and #118 were dissolved in 320 microliters of DMSO. To the solution was then added 32 microliters of Tween 80, followed by 2850 microliters of phosphate buffered saline (PBS). This gave a final concentration of 10% DMSO, 1% Tween and 1 mg/ml compound. […]

[2] = In-vitro human microsomal stability; assay type: in vitro ADME; conditions: human microsomes, 1 microMolar compound, at T = 60 minutes
Method: Human and mouse microsomal stability was determined for select compounds following the method of Houston (Houston, J. B; Biochem. Pharmacol. 47, (1994),1469).
1 μM concentration of compound and separate human and mouse microsomes (0.3 mg/mL, BD bioscience) were used in the in-vitro assay. To ensure proper energy supply for microsomal degradation of compound, an energy regenerating system comprised of 100 mM potassium phosphate, 2 mM NADPH, 3 mM MgCl2, pH=7.4. and the microsomal protein is added to each sample and the resulting suspension is then incubated in duplicate for 60 min at 37° C. in a rotary shaker. A control is run for each test agent in duplicate omitting NADPH to detect NADPH-free degradation. At T=0 and T=60 min., an aliquot is removed from each experimental and control reaction and then mixed with an equal volume of ice-cold Stop Solution (consisting of 0.3% acetic acid in acetonitrile containing haloperidol and diclofenac as internal standards). […] The samples are then centrifuged to remove precipitated protein, and the supernatants are then analyzed by LC-MS/MS to determine the percentage of compound remaining. […] After separation on a C18 reverse phase HPLC column (Agilent, Waters, or equivalent) using an acetonitrile-water gradient system, peaks were analyzed by mass spectrometry (MS) using ESI ionization in MRM mode.

[3] = cited from earlier work
[4] = test system: humans; conditions: cited from earlier work
[5] = i.p. 100 μl/mouse daily (approx. 3.3 mg/Kg), day 1-5

With `Cc1ccc(C#Cc2ccc(S(=O)(=O)N[C@H](Cc3c[nH]c4ccccc34)C(=O)O)s2)cc1` [Compound 5, (R)-3-(1H-Indol-3-yl)-2-(5-p-tolylethynyl-thiophene-2-sulfonylamino)-propionic acid] the “Paw withdrawal threshold, mean, Day 1” value [1, 5] was 0.078 grams, the “Paw withdrawal threshold, mean, Day 2” value [1, 5] was 0.117 grams and the “Paw withdrawal threshold, mean, Day 5” value [1, 5] was 0.238 grams. The “Paw withdrawal threshold, mean, Day 6” value [1, 5] was 0.099 grams, the “Paw withdrawal threshold, mean, Day 7” value [1, 5] was 0.128 grams and the “Paw withdrawal threshold, mean, Day 0 Postoperative Baseline” value ([1]; i.p. study, baseline before treatment) was 0.046 grams. The “Mean Remaining Parent with NADPH (%)” value ([2]; with NADPH) was 86%, the “Mean Remaining Parent without NADPH (%)” value ([2]; without NADPH (control)) was 89% and the “Metabolites found in human blood” value [3] was “formation of several hydroxylated metabolites”. The Musculoskeletal toxicities ([4]; humans (S-3304: animals or man)) was “no evidence of musculoskeletal toxicities” and the “Adverse events in humans” value ([4]; humans) was “headaches, somnolence, vomiting, nausea and gastrointestinal pain”.
